According to PubChem BioAssay AID248 (DTP/NCI, 2004):
Several values for one entry are separate records, joined by “and”; a condition that tells them apart may be missing. Identical values can stand only once. Inconclusive results and toxic doses are left out. No stated cut-off is given here; in the data, active means T/C of 150% or more; inactive means T/C below 125%.

Tested on: L1210 leukemia ip in BDF1 mice, survival T/C
Assay: NCI In Vivo Anticancer Drug Screen. Data for tumor model L1210 Leukemia (intraperitoneal) in B6D2F1 (BDF1) mice
Conditions: endpoint: mean survival time, higher = longer survival
Method in brief: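 Read-out is survival time, reported as the treated-group measurement over the vehicle-control measurement.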

[1] = dose: 100.0 mg/kg/injection, schedule: Q04DX003 (ip), vehicle: Klucel (hydroxypropylcellulose) (HPC)
[2] = dose: 200.0 mg/kg/injection, schedule: Q04DX003 (ip), vehicle: Klucel (hydroxypropylcellulose) (HPC)
[3] = dose: 400.0 mg/kg/injection, schedule: Q04DX003 (ip), vehicle: Klucel (hydroxypropylcellulose) (HPC)
[4] = dose: 50.0 mg/kg/injection, schedule: Q01DX009 (ip), vehicle: saline
[5] = dose: 100.0 mg/kg/injection, schedule: Q01DX009 (ip), vehicle: saline
[6] = dose: 100.0 mg/kg/injection, schedule: Q04DX003 (ip), vehicle: saline
[7] = dose: 100.0 mg/kg/injection, schedule: Q04DX002 (ip), vehicle: saline
[8] = dose: 200.0 mg/kg/injection, schedule: Q04DX002 (ip), vehicle: saline
[9] = dose: 400.0 mg/kg/injection, schedule: Q04DX002 (ip), vehicle: saline
[10] = dose: 200.0 mg/kg/injection, schedule: Q04DX003 (ip), vehicle: saline with Tween-80
[11] = dose: 100.0 mg/kg/injection, schedule: Q01DX009 (ip), vehicle: Klucel (hydroxypropylcellulose) (HPC)
[12] = dose: 200.0 mg/kg/injection, schedule: Q01DX009 (ip), vehicle: Klucel (hydroxypropylcellulose) (HPC)
[13] = dose: 400.0 mg/kg/injection, schedule: Q01DX009 (ip), vehicle: Klucel (hydroxypropylcellulose) (HPC)
[14] = dose: 100.0 mg/kg/injection, schedule: Q01DX009 (ip), vehicle: saline with Tween-80
[15] = dose: 200.0 mg/kg/injection, schedule: Q01DX009 (ip), vehicle: saline with Tween-80
[16] = dose: 100.0 mg/kg/injection, schedule: Q04DX002 (ip), vehicle: Klucel (hydroxypropylcellulose) (HPC)
[17] = dose: 200.0 mg/kg/injection, schedule: Q04DX002 (ip), vehicle: Klucel (hydroxypropylcellulose) (HPC)
[18] = dose: 400.0 mg/kg/injection, schedule: Q04DX002 (ip), vehicle: Klucel (hydroxypropylcellulose) (HPC)

Measured: T/C

NC(=O)Nc1ccc2c(c1)Cc1cc([N+](=O)[O-])ccc1-2
inactive: dose: 100.0 mg/kg/injection, schedule: Q01DX001 (ip), vehicle: carboxymethylcellulose (CMC) 100 % of control | dose: 200.0 mg/kg/injection, schedule: Q01DX001 (ip), vehicle: carboxymethylcellulose (CMC) 105 % of control | dose: 400.0 mg/kg/injection, schedule: Q01DX001 (ip), vehicle: carboxymethylcellulose (CMC) 91 % of control

CCCCOP(=O)(/C=C(\C#N)C(=O)OCC)OCCCC
inactive: [1] 87 % of control | [2] 103 % of control | [3] 98 % of control

CC(=NCC(=O)O)c1ccccc1
inactive: dose: 25.0 mg/kg/injection, schedule: Q01DX009 (ip), vehicle: saline 104 % of control | [4] 94 % of control | [5] 90 % of control | [6] 100 % of control

CCC1(c2ccccc2)OC1C(=O)OCCC(C)C (stereo unspecified)
inactive: [7] 93 % of control | [8] 93 % of control | [9] 101 % of control

CC(C)c1ccccc(=O)c1O.CC(C)c1ccccc(=O)c1O.[Cu]
inactive: [10] 91 % of control

CCCCOC(c1ccc2c(c1)OCO2)C(C)Br (stereo unspecified)
inactive: dose: 100.0 mg/kg/injection, schedule: Q04DX003 (ip), vehicle: saline with Tween-80 94 % of control | [10] 94 % of control | dose: 400.0 mg/kg/injection, schedule: Q04DX003 (ip), vehicle: saline with Tween-80 97 % of control

CCc1nc2c(c(=O)[nH]1)C(c1ccc(Cl)cc1)C(C)(C)O2 (stereo unspecified)
inactive: dose: 200.0 mg/kg/injection, schedule: Q04DX003 (ip), vehicle: acetone 94 % of control | dose: 400.0 mg/kg/injection, schedule: Q04DX003 (ip), vehicle: acetone 105 % of control

CCCCCCCCCC1(C)OCC(COC(N)=O)O1 (stereo unspecified)
inactive: dose: 25.0 mg/kg/injection, schedule: Q01DX009 (ip), vehicle: Klucel (hydroxypropylcellulose) (HPC) 104 % of control | dose: 25.0 mg/kg/injection, schedule: Q04DX003 (ip), vehicle: Klucel (hydroxypropylcellulose) (HPC) 98 % of control | dose: 50.0 mg/kg/injection, schedule: Q01DX009 (ip), vehicle: Klucel (hydroxypropylcellulose) (HPC) 93 % of control | dose: 50.0 mg/kg/injection, schedule: Q04DX003 (ip), vehicle: Klucel (hydroxypropylcellulose) (HPC) 96 % of control | [11] 93 % of control | [1] 96 % of control | [12] 98 % of control | [2] 98 % of control | [13] 102 % of control | [3] 98 % of control

O=CCSC(=S)NNc1ccccc1
inactive: [11] 106 % of control | [1] 88 % of control | [12] 95 % of control | [2] 91 % of control | [3] 96 % of control

Nc1nc(N)c2nnn(C3CC(O)C(CO)C3)c2n1 (stereo unspecified)
inactive: dose: 50.0 mg/kg/injection, schedule: Q01DX009 (ip), vehicle: saline with Tween-80 89 % of control | [14] 96 % of control | [15] 92 % of control

C[N+](C)(CC(=O)Nc1ccc(Cl)cc1)Cc1ccc2c(c1)CCCC2
inactive: dose: 6.25 mg/kg/injection, schedule: Q04DX002 (ip), vehicle: saline with Tween-80 90 % of control | dose: 12.5 mg/kg/injection, schedule: Q04DX002 (ip), vehicle: saline with Tween-80 90 % of control | dose: 25.0 mg/kg/injection, schedule: Q04DX002 (ip), vehicle: saline with Tween-80 90 % of control and 91 % of control

CCNP(=S)(OCC)OCC
inactive: dose: 75.0 mg/kg/injection, schedule: Q01DX001 (ip), vehicle: saline 98 % of control | dose: 150.0 mg/kg/injection, schedule: Q01DX001 (ip), vehicle: saline 89 % of control | dose: 300.0 mg/kg/injection, schedule: Q01DX001 (ip), vehicle: saline 96 % of control

CCc1cccc(CC)c1N=Cc1ccccc1
inactive: [11] 97 % of control | [12] 105 % of control | [13] 97 % of control

CNc1ccccc1CO
inactive: dose: 100.0 mg/kg/injection, schedule: Q04DX003 (ip), vehicle: other 95 % of control | dose: 200.0 mg/kg/injection, schedule: Q04DX003 (ip), vehicle: other 104 % of control | dose: 400.0 mg/kg/injection, schedule: Q04DX003 (ip), vehicle: other 107 % of control

CC(=O)CC(=O)Nc1ccc(Cl)cc1
inactive: [16] 105 % of control | dose: 177.0 mg/kg/injection, schedule: Q04DX002 (ip), vehicle: Klucel (hydroxypropylcellulose) (HPC) 102 % of control | [17] 86 % of control | dose: 266.0 mg/kg/injection, schedule: Q04DX002 (ip), vehicle: Klucel (hydroxypropylcellulose) (HPC) 92 % of control | [18] 95 % of control | dose: 600.0 mg/kg/injection, schedule: Q04DX002 (ip), vehicle: Klucel (hydroxypropylcellulose) (HPC) 92 % of control

CC(=O)NC(C)C(N)=O (stereo unspecified)
inactive: [7] 108 % of control | [8] 105 % of control | [9] 96 % of control

c1ccc(Sc2cccc3ccccc23)cc1
inactive: [14] 109 % of control | [15] 103 % of control | dose: 400.0 mg/kg/injection, schedule: Q01DX009 (ip), vehicle: saline with Tween-80 103 % of control

CSc1ncnc2c1ncn2C1OC(CO)C2OC(C)(C)OC21 (stereo unspecified)
inactive: dose: 100.0 mg/kg/injection, schedule: Q01DX005 (ip), vehicle: saline 112 % of control | dose: 200.0 mg/kg/injection, schedule: Q01DX005 (ip), vehicle: saline 122 % of control

CC(=O)c1nnn(-c2ccccc2)n1
inactive: dose: 100.0 mg/kg/injection, schedule: Q01DX001 (ip), vehicle: other 95 % of control and 109 % of control | dose: 200.0 mg/kg/injection, schedule: Q01DX001 (ip), vehicle: other 95 % of control and 101 % of control | dose: 400.0 mg/kg/injection, schedule: Q01DX001 (ip), vehicle: other 101 % of control

Cc1c([N+](=O)[O-])cc(C(C)(C)C)c(OC(=O)C(Cl)(Cl)Cl)c1[N+](=O)[O-]
inactive: [16] 95 % of control | [17] 91 % of control

C/C=C\C(C)C(C)C (stereo unspecified)
inactive: [4] 93 % of control | [5] 97 % of control | dose: 200.0 mg/kg/injection, schedule: Q01DX009 (ip), vehicle: saline 93 % of control

CC(C)(C)NCC1C(c2ccccc2)C1c1ccccc1 (stereo unspecified)
inactive: dose: 25.0 mg/kg/injection, schedule: Q04DX002 (ip), vehicle: Klucel (hydroxypropylcellulose) (HPC) 92 % of control | dose: 50.0 mg/kg/injection, schedule: Q04DX002 (ip), vehicle: Klucel (hydroxypropylcellulose) (HPC) 88 % of control

CCSCN(C)C
inactive: [4] 102 % of control | dose: 50.0 mg/kg/injection, schedule: Q04DX003 (ip), vehicle: saline 97 % of control | dose: 100.0 mg/kg/injection, schedule: Q01DX001 (ip), vehicle: saline 113 % of control | [5] 101 % of control | [6] 103 % of control | dose: 200.0 mg/kg/injection, schedule: Q01DX001 (ip), vehicle: saline 97 % of control | dose: 200.0 mg/kg/injection, schedule: Q04DX003 (ip), vehicle: saline 105 % of control

COc1ccc(Cl)cc1NC(=O)Nc1cc(C)ccn1
inactive: [11] 104 % of control | [12] 100 % of control | [13] 88 % of control

O=[N+]([O-])c1ccccc1Sc1ccc2c3c(cccc13)CN(CCCO)C2
inactive: [16] 90 % of control | [17] 108 % of control | [18] 104 % of control
